# According to PMC7472354, “Enhanced Antimicrobial Activity of N-Terminal Derivatives of a Novel Brevinin-1 Peptide from The Skin Secretion of Odorrana schmackeri” (Toxins, 2020):
# Where a SMILES comes first, the peptide text is derived from it.
# How the values were obtained:
# [1] = system: horse red blood cells; assay: Haemolysis assay and therapeutic index; settings: 2% horse red blood cells in PBS, 2 h, 37 °C, absorbance 570 nm; best-fitted curve
# Experimental: The haemolytic activity of synthetic peptides was determined using the horse red blood cells that were extracted from the de-fibroblast whole horse blood (TCS Biosciences Ltd. Buckingham, UK). […] Briefly, the red blood cells were harvested and washed using PBS until all broken red blood cells were removed. Then, a 2% cell suspension was prepared using PBS. The peptide concentrations were set as antimicrobial activity assay and mixed with the red blood cells in the microcentrifuge tubes. After a 2 h-incubation at 37 °C, the tubes were centrifuged and the suspension was transferred into a clear 96 well plate. The absorbance of released haemoglobin in the suspension was detected at 570 nm by a plate reader. Besides, the red blood cells treated with PBS and 1% Triton X-100 were used as the negative and positive controls, respectively. […] The therapeutic index (TI) was further determined as below:(1) TI=HC50/product of n MICsn,
# [2] = system: Staphylococcus aureus (NCTC 10788); type: cell-based
# Experimental: (§1) The minimal inhibitory concentrations (MICs) and minimum bactericidal concentrations (MBCs) were evaluated to determine the antimicrobial activity of synthetic peptides. The microorganisms employed in the study are two kinds of Gram-negative bacteria, Escherichia coli (NCTC 10418) and Pseudomonas aeruginosa (ATCC 27853), three kinds of Gram-positive bacteria, Staphylococcus aureus (NCTC 10788), Methicillin-resistant Staphylococcus aureus (MRSA, ATCC 12493) and Enterococcus faecalis (NCTC 12697) and a yeast, Candida albicans (NCPF 1467), as indicated previously. […] The sterilised broth medium was used as the positive control and the microorganism cultured in the medium only was treated as the negative control. […] The MBC results were defined as the lowest bactericidal concentrations of peptide. The antimicrobial activity of peptides was tested by monitoring the absorbance at 550 nm using an ELISA plate reader (Biolise BioTek EL808, Winooski, VT, USA).
# [3] = system: Escherichia coli (NCTC 10418); type: cell-based
# Experimental: as §1
# [4] = system: Candida albicans (NCPF 1467); type: cell-based
# Experimental: as §1
# [5] = system: Enterococcus faecalis (NCTC 12697); type: cell-based
# Experimental: as §1
# [6] = system: Pseudomonas aeruginosa (ATCC 27853); type: cell-based
# Experimental: as §1
# [7] = system: Methicillin-resistant Staphylococcus aureus (MRSA, ATCC 12493); type: cell-based
# Experimental: as §1
structure (smiles),measurement,setting,value
CC[C@H](C)[C@H](NC(=O)[C@H](CCCCN)NC(=O)[C@@H]1CCCN1C(=O)[C@H](CC(C)C)NC(=O)[C@@H](N)Cc1ccccc1)C(=O)N[C@@H](CC(C)C)C(=O)N[C@@H](CCCCN)C(=O)N[C@H](C(=O)N[C@@H](C)C(=O)N[C@@H](C)C(=O)N[C@@H](CCCCN)C(N)=O)C(C)C [OSc] (H-FLPKILKVAAK-NH2),HC50 (concentration causing 50% haemolysis of the red blood cells),[1],>512 µM
same,MBC,"[2]; NCTC 10788, 18 h",> 512 µM
same,MIC,"[2]; NCTC 10788, 24 h",256 µM
same,MBC,"[3]; NCTC 10418, 18 h",> 512 µM
same,MIC,"[3]; NCTC 10418, 24 h",> 512 µM
same,MBC,"[4]; NCPF 1467, 18 h",> 512 µM
same,MIC,"[4]; NCPF 1467, 24 h",256 µM
same,MBC,"[5]; NCTC 12697, 18 h",> 512 µM
same,MIC,"[5]; NCTC 12697, 24 h",> 512 µM
same,MBC,"[6]; ATCC 27853, 18 h",> 512 µM
same,MIC,"[6]; ATCC 27853, 24 h",> 512 µM
same,MBC,"[7]; ATCC 12493, 18 h",> 512 µM
same,MIC,"[7]; ATCC 12493, 24 h",> 512 µM
